Measurements from ChEMBL document CHEMBL1201862, “PubChem BioAssay data set” (2004).
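Tested at 5 concentrations; 48 h exposure; 96-well plates; endpoints linearly interpolated, else capped at highest concentration. At the GI50, growth is halved.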 Active and inactive are the calls of the source. Rule as the data show it: active = GI50 up to about 1.1 µM and inactive = higher.

Assays:
Assay in all cases: NCI-60 cell line screen, 48 h
[1] = system: SNB-19
[2] = system: CAKI-1
[3] = system: UACC-62
[4] = system: RPMI-8226
[5] = system: SF-539
[6] = system: HT-29
[7] = system: SF-268
[8] = system: HCT-116
[9] = system: MDA-MB-231
[10] = system: UO-31
[11] = system: HCT-15
[12] = system: SK-OV-3
[13] = system: CCRF-CEM
[14] = system: MDA-MB-435
[15] = system: RXF 393
[16] = system: SK-MEL-5
[17] = system: NCI-H522
[18] = system: HOP-92

Row | Structure (SMILES) | GI50 [1] | GI50 [2] | GI50 [3] | GI50 [4] | GI50 [5] | GI50 [6] | GI50 [7] | GI50 [8] | GI50 [9] | GI50 [10] | GI50 [11] [µM] | GI50 [12] | GI50 [13] | GI50 [14] | GI50 [15] | GI50 [16] | GI50 [17] | GI50 [18]
1 | Cn1ncc2c(NCc3ccccc3)ncnc21 | > 100 µM (inactive) | > 100 µM (inactive) | > 100 µM (inactive) | > 100 µM (inactive) | > 100 µM (inactive) | > 100 µM (inactive) | > 100 µM (inactive) | > 100 µM (inactive) | > 100 µM (inactive) | > 100 µM (inactive) | > 100 | > 100 µM (inactive) | > 100 µM (inactive) | > 100 µM (inactive) | > 100 µM (inactive) | > 100 µM (inactive) | – | –
2 | CCCCC(C)C(OC(=O)CC(CC(=O)O)C(=O)O)C(CC(C)CC(O)CCCCC(O)CC(O)C(C)N)OC(=O)CC(CC(=O)O)C(=O)O (centres undefined) | > 100 µM (inactive) | > 100 µM (inactive) | > 100 µM (inactive) | > 100 µM (inactive) | > 100 µM (inactive) | > 100 µM (inactive) | > 100 µM (inactive) | > 100 µM (inactive) | – | > 100 µM (inactive) | > 100 | > 100 µM (inactive) | > 100 µM (inactive) | – | > 48.8 µM (inactive) | > 100 µM (inactive) | > 100 µM (inactive) | > 65.8 µM (inactive)
3 | N#C[C@H](C(=O)c1ccccc1F)c1nc2ccccc2[nH]1 | > 100 µM (inactive) | > 100 µM (inactive) | > 100 µM (inactive) | > 100 µM (inactive) | > 100 µM (inactive) | 69.2 µM (inactive) | > 100 µM (inactive) | > 100 µM (inactive) | > 100 µM (inactive) | 93.1 µM (inactive) | > 100 | > 100 µM (inactive) | 53 µM (inactive) | > 100 µM (inactive) | > 100 µM (inactive) | – | – | > 100 µM (inactive)
4 | O=C(Cn1c(-c2ccccc2)cc2ccccc21)N1CCCC1 | > 100 µM (inactive) | – | > 100 µM (inactive) | – | – | > 100 µM (inactive) | > 100 µM (inactive) | > 100 µM (inactive) | > 100 µM (inactive) | > 100 µM (inactive) | > 100 | > 100 µM (inactive) | – | – | – | 63.2 µM (inactive) | > 100 µM (inactive) | > 100 µM (inactive)
5 | O=c1[nH]c(=O)n(COCCO)c2ccc(Br)cc12 | 50.6 µM (inactive) | > 100 µM (inactive) | > 100 µM (inactive) | – | > 100 µM (inactive) | > 100 µM (inactive) | – | > 100 µM (inactive) | > 100 µM (inactive) | 74.3 µM (inactive) | 45.9 | > 100 µM (inactive) | > 100 µM (inactive) | > 100 µM (inactive) | > 100 µM (inactive) | > 100 µM (inactive) | – | > 100 µM (inactive)
6 | CCOC(=O)c1cc2cc(Cc3ccc4[nH]c(C(=O)OCC)cc4c3)ccc2[nH]1 | 13 µM (inactive) | 12 µM (inactive) | 13.6 µM (inactive) | 28.6 µM (inactive) | 13.7 µM (inactive) | 35.4 µM (inactive) | 13.5 µM (inactive) | 38.5 µM (inactive) | 15.5 µM (inactive) | 59 µM (inactive) | > 100 | 13.6 µM (inactive) | 57.5 µM (inactive) | 27.2 µM (inactive) | 9.18 µM (inactive) | – | – | 12.3 µM (inactive)
7 | O=C(Cn1c(C(=O)/C=C/c2ccco2)nc2ccccc21)c1ccc(Cl)cc1 | 27.5 µM (inactive) | – | 22.8 µM (inactive) | 10.1 µM (inactive) | 44.9 µM (inactive) | 26.1 µM (inactive) | 9.71 µM (inactive) | 16.3 µM (inactive) | 20.2 µM (inactive) | 23.2 µM (inactive) | 20.6 | 44.4 µM (inactive) | 3.58 µM (inactive) | 12.1 µM (inactive) | 30.4 µM (inactive) | 19.9 µM (inactive) | – | 26.4 µM (inactive)
8 | CCOC(=O)c1ccc(NC(=O)O/N=C(/Cl)CCl)cc1 | 86.1 µM (inactive) | > 100 µM (inactive) | – | 47.2 µM (inactive) | 69 µM (inactive) | 54.6 µM (inactive) | 47.1 µM (inactive) | 50.1 µM (inactive) | > 100 µM (inactive) | 45 µM (inactive) | 5.57 | 75.3 µM (inactive) | 21.5 µM (inactive) | – | – | 31.6 µM (inactive) | – | –
9 | N#C/C(=C/NC(=S)Nc1ccc(S(N)(=O)=O)cc1)C(N)=O | – | > 100 µM (inactive) | > 100 µM (inactive) | > 100 µM (inactive) | > 100 µM (inactive) | > 100 µM (inactive) | > 100 µM (inactive) | > 100 µM (inactive) | – | – | > 100 | > 100 µM (inactive) | – | > 100 µM (inactive) | > 100 µM (inactive) | > 100 µM (inactive) | > 100 µM (inactive) | > 100 µM (inactive)
10 | CCOC(=O)C#Cc1ccccc1 | 14.8 µM (inactive) | 14.4 µM (inactive) | 6.75 µM (inactive) | 12.2 µM (inactive) | 5.74 µM (inactive) | 7.24 µM (inactive) | – | 1.91 µM (inactive) | 16.4 µM (inactive) | 0.741 µM (active) | 8.09 | 26.6 µM (inactive) | 2.94 µM (inactive) | 7.18 µM (inactive) | – | 3.72 µM (inactive) | – | 18.3 µM (inactive)
11 | O=c1n(-c2ccccc2)c(=O)n2n1C1Cc3ccccc3C12 (centres undefined) | > 100 µM (inactive) | > 100 µM (inactive) | > 100 µM (inactive) | > 100 µM (inactive) | > 100 µM (inactive) | > 100 µM (inactive) | > 100 µM (inactive) | > 100 µM (inactive) | > 100 µM (inactive) | > 100 µM (inactive) | > 100 | > 100 µM (inactive) | > 100 µM (inactive) | > 100 µM (inactive) | – | > 100 µM (inactive) | – | > 100 µM (inactive)
12 | Cc1nc2c(=O)n3c4c(cccc4c2o1)CCC3 | > 100 µM (inactive) | > 100 µM (inactive) | > 100 µM (inactive) | > 100 µM (inactive) | 73.5 µM (inactive) | 76 µM (inactive) | > 100 µM (inactive) | 43.5 µM (inactive) | > 100 µM (inactive) | > 100 µM (inactive) | 49.4 | > 100 µM (inactive) | > 100 µM (inactive) | > 100 µM (inactive) | > 100 µM (inactive) | > 100 µM (inactive) | – | > 100 µM (inactive)
13 | CC1CN=C(N(C(=O)Nc2ccccc2)c2ccccc2)S1 (centres undefined) | 88.1 µM (inactive) | 27 µM (inactive) | – | 26 µM (inactive) | > 10 µM (inactive) | 17.9 µM (inactive) | 20.6 µM (inactive) | 39.7 µM (inactive) | 27.4 µM (inactive) | 38.4 µM (inactive) | 37.2 | > 100 µM (inactive) | 23.4 µM (inactive) | – | – | 16.7 µM (inactive) | – | –
14 | C=C(C)[C@@H]1CC[C@]2(C(=O)O)CC[C@]3(C)[C@H](CCC4[C@@]5(C)CC[C@H](C(=O)/C=C/c6ccc(O)c(O)c6)C(C)(C)[C@@H]5CC[C@]43C)[C@@H]12 (some centres undefined) | 11.9 µM (inactive) | 3.66 µM (inactive) | 3.77 µM (inactive) | – | 2.53 µM (inactive) | – | 5.28 µM (inactive) | 2.77 µM (inactive) | 4.36 µM (inactive) | 3.58 µM (inactive) | 3.31 | 4.42 µM (inactive) | 2.42 µM (inactive) | 2.29 µM (inactive) | 6 µM (inactive) | 2.85 µM (inactive) | – | –
